Measured values: PubChem BioAssay AID1918955 (Molecular Pharmacology Branch, DTP, NCI, 2023)

System: NCI/ADR-RES complex spheroid viability
Experiment: Anticancer human tumor NCI/ADR-RES cell line growth inhibition;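 further: spheroids exposed to compounds for 7 days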;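 on viability, T/C: 100% = DMSO vehicle treated spheroids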
Details: for IC50: curve of first compound; for viability, T/C: stronger effect = lower value
Method in brief: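 Multicellular complex spheroids of tumor cells with human endothelial cells (HUVEC) and mesenchymal stem cells; the LSD1 inhibitor iadademstat was combined with standard-of-care or investigational agents. Top concentration at or near clinical Cmax, half-log dilutions; final DMSO ≤0.25%.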

[1] = second compound 0.1 µM, first compound 0.000316 µM
[2] = second compound 0.1 µM, first compound 0.001 µM
[3] = second compound 0.1 µM, first compound 0.00316 µM
[4] = second compound 0.1 µM, first compound 0.01 µM
[5] = second compound 0.1 µM, first compound 0.0316 µM
[6] = second compound 0.1 µM, first compound 0.1 µM
[7] = second compound 0.316 µM, first compound 0.000316 µM
[8] = second compound 0.316 µM, first compound 0.001 µM
[9] = second compound 0.316 µM, first compound 0.00316 µM
[10] = second compound 0.316 µM, first compound 0.01 µM
[11] = second compound 0.316 µM, first compound 0.0316 µM
[12] = second compound 0.316 µM, first compound 0.1 µM
[13] = second compound 1 µM, first compound 0.000316 µM
[14] = second compound 1 µM, first compound 0.001 µM
[15] = second compound 1 µM, first compound 0.00316 µM
[16] = second compound 1 µM, first compound 0.01 µM
[17] = second compound 1 µM, first compound 0.0316 µM
[18] = second compound 1 µM, first compound 0.1 µM
[19] = second compound 3.16 µM, first compound 0.000316 µM
[20] = second compound 3.16 µM, first compound 0.001 µM
[21] = second compound 3.16 µM, first compound 0.00316 µM
[22] = second compound 3.16 µM, first compound 0.01 µM
[23] = second compound 3.16 µM, first compound 0.0316 µM
[24] = second compound 3.16 µM, first compound 0.1 µM
[25] = second compound 10 µM, first compound 0.000316 µM
[26] = second compound 10 µM, first compound 0.001 µM
[27] = second compound 10 µM, first compound 0.00316 µM
[28] = second compound 10 µM, first compound 0.01 µM
[29] = second compound 10 µM, first compound 0.0316 µM
[30] = second compound 10 µM, first compound 0.1 µM

Compound | IC50 (second compound 0.1 µM) | IC50 (second compound 0.316 µM) | IC50 (second compound 1 µM) | IC50 (second compound 3.16 µM) | IC50 (second compound 10 µM) | viability, T/C [3] | viability, T/C [4] | viability, T/C [5] | viability, T/C [6] | viability, T/C [9] | viability, T/C [10] | viability, T/C [11] | viability, T/C [12] | viability, T/C [15] | viability, T/C [16] | viability, T/C [17] | viability, T/C [18] | viability, T/C [21] | viability, T/C [22] | viability, T/C [23] | other results
CC(C)CC(NC(=O)C(Cc1ccccc1)NC(=O)c1cnccn1)B(O)O (stereo not given) + NC1CC1c1ccc(-c2cccc(O)c2)cc1 | 12.2 nM | 12.7 nM | 14.2 nM | 12.2 nM | 11.8 nM | 92.2% | 61% | 6.87% | 0.38% | 94.6% | 61.7% | 6.88% | 0.32% | 93.5% | 69% | 7.3% | 0.37% | 87% | 58.2% | 14.1% | viability, T/C [1]: 110%; viability, T/C [2]: 102%; viability, T/C [7]: 103%; viability, T/C [8]: 103%; viability, T/C [13]: 106%; viability, T/C [14]: 99.4%; viability, T/C [19]: 97.6%; viability, T/C [20]: 98.8%; viability, T/C [24]: 0.23%; viability, T/C [25]: 90.5%; viability, T/C [26]: 88.8%; viability, T/C [27]: 75.4%; viability, T/C [28]: 59.6%; viability, T/C [29]: 8.55%; viability, T/C [30]: 0.36%
CC(C)CC(NC(=O)CNC(=O)c1cc(Cl)ccc1Cl)B1OC(=O)CC(CC(=O)O)(C(=O)O)O1 (stereo not given) + NC1CC1c1ccc(-c2cccc(O)c2)cc1 | 23.6 nM | 23.8 nM | 25.9 nM | 19.5 nM | 17.7 nM | 97.9% | 84.5% | 38.3% | 2.37% | 102% | 81.3% | 39.8% | 2.3% | 96.2% | 81.3% | 43.4% | 3.84% | 88.9% | 80.4% | 28.5% | viability, T/C [1]: 101%; viability, T/C [2]: 108%; viability, T/C [7]: 109%; viability, T/C [8]: 104%; viability, T/C [13]: 97.3%; viability, T/C [14]: 93.8%; viability, T/C [19]: 101%; viability, T/C [20]: 94.7%; viability, T/C [24]: 4.76%; viability, T/C [25]: 90.3%; viability, T/C [26]: 88.9%; viability, T/C [27]: 81%; viability, T/C [28]: 64.9%; viability, T/C [29]: 34.9%; viability, T/C [30]: 2.76%
COc1cc(Nc2ncc3c(n2)-c2ccc(Cl)cc2C(c2c(F)cccc2OC)=NC3)ccc1C(=O)O + NC1CC1c1ccc(-c2cccc(O)c2)cc1 | 16.9 nM | 18.3 nM | 17.6 nM | 19.5 nM | 17.1 nM | 86% | 64.9% | 32.5% | 16% | 93.5% | 65.8% | 36.7% | 18% | 89.7% | 62.2% | 38.1% | 19.7% | 88.6% | 63.6% | 41.8% | viability, T/C (second compound 0.1 µM, first compound 0.316 µM): 15.4%; viability, T/C (second compound 0.1 µM, first compound 1 µM): 14.4%; viability, T/C (second compound 0.316 µM, first compound 0.316 µM): 15.7%; viability, T/C (second compound 0.316 µM, first compound 1 µM): 17.3%; viability, T/C (second compound 1 µM, first compound 0.316 µM): 14.4%; viability, T/C (second compound 1 µM, first compound 1 µM): 12%; viability, T/C [24]: 19.4%; viability, T/C (second compound 3.16 µM, first compound 0.316 µM): 15.9%; viability, T/C (second compound 3.16 µM, first compound 1 µM): 11.8%; viability, T/C [27]: 79.2%; viability, T/C [28]: 57.8%; viability, T/C [29]: 41.2%; viability, T/C [30]: 23.6%; viability, T/C (second compound 10 µM, first compound 0.316 µM): 13%; viability, T/C (second compound 10 µM, first compound 1 µM): 11.9%
